Results on 1 molecule are retold here after patent US11033531B2, “Use of carbamate compound for preventing, alleviating, or treating tremors or tremor syndrome” (SK BIOPHARMACEUTICALS CO., LTD., priority 2016, dated 2021).

Marks after values point to notes of the source that are not given here.

This assay concerns oxotremorine-induced tremor in rats. Nature of the assay: Oxotremorine-induced tremor in rats. Type of assay: in vivo, rat. Conditions: for Number of tremor behaviors: male SD rats, behaviors of at least 0.5 s in 2,048 s, mean±SEM. An excerpt: As a model for assessing the potential efficacy of therapeutic agents that can effectively treat essential tremor and other tremor syndromes, oxotremorine-induced tremor in rats was used [B Cox, D Potkonjak, Effects of drugs on tremor and increase in brain acetylcholine produced by oxotremorine in the rat, Br. J. Pharmac., 1970, 38, 171-180].
Male SD rats (CrjBgi:CD(SD)IGS) were purchased from Orient Bio, Inc. of Korea, and placed in a wire mesh cage under conditions of ambient temperature of 20 to 24° C., 55 to 75% relative humidity, an automatically controlled light-and-darkness cycle of 12 hours and free access to feed (purchased from Agri Brands Purina Korea, Inc.) and water. The rats were housed and maintained in accordance with the Laboratory Animal Care Standards of the Institutional Animal Care and Use Committee (IACUC). After about one week of stabilization, rats weighing 200 to 240 g were used in the experiment. The rats to be used for the experiment were fasted by removing the feed 16 hours before the experiment, and placed in a tremor measurement device (Tremor Monitor™, San Diego Instruments, CA) 3 hours before the experiment and adapted for 10 minutes.
The test compound was prepared by dissolving it in 30% polyethylene glycol 400 (purchased from Sigma) used as a vehicle 30-45 minutes before each experiment. The vehicle and the test compound (3, 10 and 30 mg/kg dose) were administered into the oral cavity, respectively, in a volume of 4 ml per 1 kg body weight of the rat. After 60 minutes, oxotremorine (oxotremorine sesquifumarate salt, 1-(4-[1-Pyrrolidinyl]-2-butynyl)-2-pyrrolidinone sesquifumarate; purchased from Sigma) dissolved in saline and prepared in a volume of […] or a saline were subcutaneously injected into the back of the rat neck in a volume of 2 ml per 1 kg body weight of the rat. Oxotremorine-administered rats were immediately placed in a tremor measurement device (filter frequency 12 Hz, band-width 6 Hz, filter number 2), and the number of tremor behaviors that progressed for at least 0.5 seconds in 2,048 seconds were automatically measured and recorded. The number of rats per group was 16.
All data were expressed as mean±SEM. The number of oxotremorine-induced tremor behaviors in the group treated with the test compound was expressed as % inhibition compared to the vehicle group. Statistical analysis of the number of tremor behaviors between groups was performed using one-way ANOVA (one-way analysis of variance) and Dunnett's multiple comparison test by using the GraphPad Prism ver. 4.0 program. The mean number of tremor behaviors in the vehicle/oxotremorine group was observed as 29.8±8.1, and the mean number of tremor behaviors in the vehicle/saline group was observed as 9.2±2.5.

Usually ED50 stands for the dose at which the effect has come halfway, by size or by number of responders. As usually defined, the inhibition is the relative decrease from the control value, in per cent. On to `NC(=O)O[C@@H](Cn1ncnn1)c1ccccc1Cl` [Test compound], for which, under “Rattus norvegicus, po, rats, inhibition of oxotremorine-induced tremor behaviors, read-out: Calculated Median Effective Dose (ED50)”, the ED50 is 1.67 mg/kg. For the same molecule, the inhibition at 3 mg/kg (Rattus norvegicus, po, 3 mg/kg p.o., rats, vs vehicle/oxotremorine group, corrected for vehicle/saline group, read-out: Inhibition rate compared to negative group) came out at 50.3%. For the same molecule, under “Rattus norvegicus, po, 10 mg/kg p.o., rats, vs vehicle/oxotremorine group, corrected for vehicle/saline group, read-out: Inhibition rate compared to negative group”, the inhibition at 10 mg/kg came to 78.7%. In addition, the inhibition at 30 mg/kg (Rattus norvegicus, po, 30 mg/kg p.o., rats, vs vehicle/oxotremorine group, corrected for vehicle/saline group, read-out: Inhibition rate compared to negative group) was 130%. The “Number of tremor behaviors” value runs as follows: (3 mg/kg p.o. 60 min before oxotremorine s.c.) 19.4 ± 3.7; (10 mg/kg p.o. 60 min before oxotremorine s.c.) 13.6 ± 0.1^2); (30 mg/kg p.o. 60 min before oxotremorine s.c.) 2.9 ± 0.5^1). Besides, the “Pharmacological activity in the oxotremorine-induced tremor behavior model” value (rats, 3, 10 and 30 mg/kg p.o.) was “significant pharmacological activity”.
